Here are results for 13 molecules from patent publication US9187465B2, “Oxazole tyrosine kinase inhibitors” (Sareum Limited, priority 2007, dated 2015).

pIC50: −log10 of the molar value. Some results are limits rather than exact numbers.

For assay [1], the system named is SW620, HCT-116, Colo205, A549, Calu-6 or HL-60 tumour xenografts. To be noted: cited from earlier work.
Assay [2] concerns A549 human lung carcinoma cells. In words: Anti-proliferative activity, Alamar Blue assay, A549. The assay is classed as cell-based. The conditions noted are these: A549, 72 h, read-out: cell growth IC50. How it is done:
(§1) The anti-proliferative activities of compounds of the invention are determined by measuring the ability of the compounds to inhibition of cell growth in a number of cell lines. Inhibition of cell growth is measured using the Alamar Blue assay (Nociari et al., Journal of Immunological Methods (1998) 213, 157-167). The method is based on the ability of viable cells to reduce resazurin to its fluorescent product resorufin. For each proliferation assay cells are plated onto 96 well plates and allowed to recover for 16 hours prior to the addition of inhibitor compounds for a further 72 hours. At the end of the incubation period 10% (v/v) Alamar Blue is added and incubated for a further 6 hours prior to determination of fluorescent product at Excitation 535 nm and Emission 590 nm. In the case of the non-proliferating cell assay cells are maintained at confluence for 96 hour prior to the addition of inhibitor compounds for a further 72 hours. The number of viable cells is determined by Alamar Blue assay as before. All cell lines are obtained from ECACC (European Collection of cell Cultures).
In general terms: The colour change of resazurin is a common sign of viable cells or microbes.

The target in a further assay is T1, human FLT3 (Homo sapiens, UniProt P36888).
T1 construct: a construct expressing the human FLT3 (564-993) with an amino terminal GST tag; host or cells: Sf9 insect cells (baculovirus)
T1 sequence (P36888 564-993): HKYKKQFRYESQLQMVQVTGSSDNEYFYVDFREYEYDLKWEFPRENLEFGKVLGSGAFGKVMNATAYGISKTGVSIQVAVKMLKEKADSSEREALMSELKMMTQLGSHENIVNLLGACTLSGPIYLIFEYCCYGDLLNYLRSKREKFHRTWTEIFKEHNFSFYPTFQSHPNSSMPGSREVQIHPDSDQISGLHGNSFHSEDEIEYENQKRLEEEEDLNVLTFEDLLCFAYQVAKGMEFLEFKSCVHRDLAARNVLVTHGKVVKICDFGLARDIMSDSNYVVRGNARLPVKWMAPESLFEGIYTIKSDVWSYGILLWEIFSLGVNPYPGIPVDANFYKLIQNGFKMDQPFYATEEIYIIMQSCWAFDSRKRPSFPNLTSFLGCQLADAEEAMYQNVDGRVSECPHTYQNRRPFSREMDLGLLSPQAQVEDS
In words: FLT3 kinase assay (DELFIA enzyme inhibition). The assay is classed as biochemical. In a few lines:
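GST-tagged human FLT3 (564-993), expressed in sf9 cells, phosphorylated a biotinylated Gastrin Precursor (Tyr 87)-derived peptide for 30 min at room temperature before EDTA stop. The captured peptide was detected by Eu-labelled anti-phosphotyrosine DELFIA time-resolved fluorescence. IC50 was derived from % inhibition curves.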

Another assay has as its target T2, human FLT4 (Homo sapiens, UniProt P35916).
T2 construct: a construct expressing the human FLT4 (789-1207) with an amino terminal GST tag; host or cells: Sf9 insect cells (baculovirus)
In words: FLT4 kinase assay (DELFIA enzyme inhibition). To be noted: read-out: FLT4 IC50. It counts as biochemical. In a few lines: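 GST-tagged human FLT4 (789-1207) from Sf9 cells phosphorylates a biotinylated MET (Tyr1253)-derived peptide for 30 min at room temperature, stopped with EDTA. Phosphopeptide is captured on Neutravidin and detected with Eu-labelled anti-phosphotyrosine antibody by time-resolved fluorescence; IC50 from % inhibition curves.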

The subject of another assay is HCT116 cells. As to the kind of experiment: Anti-proliferative activity, Alamar Blue assay, HCT116. It counts as cell-based. The conditions noted are these: Homo sapiens, HCT-116, 72 hours, read-out: cell proliferation IC50. How it is done:
as §1

The next assay addresses T3, human Aurora A (Homo sapiens, UniProt O14965).
T3 construct: Histidine tag (N); host or cells: Sf9 insect cells (baculovirus)
T3 sequence (O14965 1-403): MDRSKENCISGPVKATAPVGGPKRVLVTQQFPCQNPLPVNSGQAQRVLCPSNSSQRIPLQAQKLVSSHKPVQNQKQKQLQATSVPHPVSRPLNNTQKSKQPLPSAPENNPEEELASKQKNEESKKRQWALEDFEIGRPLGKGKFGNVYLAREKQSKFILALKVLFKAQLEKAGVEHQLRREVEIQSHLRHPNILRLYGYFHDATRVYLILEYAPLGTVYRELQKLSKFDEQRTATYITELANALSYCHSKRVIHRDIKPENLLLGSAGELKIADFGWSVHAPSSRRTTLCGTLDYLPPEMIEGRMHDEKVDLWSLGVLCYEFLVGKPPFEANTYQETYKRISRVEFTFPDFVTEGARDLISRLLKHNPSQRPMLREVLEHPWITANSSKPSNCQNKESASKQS
In words: Aurora A kinase assay (DELFIA enzyme inhibition). It counts as biochemical. To be noted: read-out: Aurora A IC50. Put shortly: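 DELFIA read-out (time-resolved Eu fluorescence, 620 nm emission) after Neutravidin capture of biotinylated peptide substrate and antibody detection. Reaction: Ni-agarose-purified Aurora A, 30 min at room temperature, stopped with 100 mM EDTA.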

In assay [3] the test system is treatment-refractory primary Acute Myelogenous Leukemia (AML) cells. The conditions noted are these: treatment-refractory cells from patients; cited from earlier work.

T2 sequence (P35916 789-1207): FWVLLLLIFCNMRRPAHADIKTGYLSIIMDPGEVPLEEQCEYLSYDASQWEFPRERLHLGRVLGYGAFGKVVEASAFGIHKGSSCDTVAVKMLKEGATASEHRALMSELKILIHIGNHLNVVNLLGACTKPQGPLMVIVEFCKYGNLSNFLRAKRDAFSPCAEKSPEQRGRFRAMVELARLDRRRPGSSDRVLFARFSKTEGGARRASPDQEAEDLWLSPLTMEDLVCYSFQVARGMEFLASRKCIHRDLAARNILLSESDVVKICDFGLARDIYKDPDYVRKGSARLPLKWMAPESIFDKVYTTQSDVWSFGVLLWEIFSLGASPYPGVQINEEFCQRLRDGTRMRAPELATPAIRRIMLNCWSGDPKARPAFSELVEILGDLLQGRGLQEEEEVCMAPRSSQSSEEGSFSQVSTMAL

With `CCN(CCCOc1ccc2c(Nc3cc(CC(=O)Nc4cccc(F)c4)n[nH]3)ncnc2c1)CCOP(=O)(O)O` [AZD1152], the “complete tumour regression (animals)” value in assay [1] (HL-60 xenograft) is reported as 8 of 11. Also, the “inhibition of tumour growth” value in assay [1] (dosed over 48 h via sub-cutaneous mini-pump infusion, all xenograft models) is 55% to 100.

`NC(=O)c1nc(-c2c(F)cccc2F)oc1-c1ccc(N2CCNCC2)cc1` [Example G-3, 2-(2,6-difluorophenyl)-5-(4-(piperazin-1-yl)phenyl)oxazole-4-carboxamide]: the pIC50 (in assay [2]; against human FLT3; on human FLT4; with HCT116 cells; at human Aurora A) was > 5.00 in each case.

As for `NC(=O)c1nc(-c2c(F)cccc2Cl)oc1-c1ccc(N2CCNCC2)cc1` [Example G-5, 2-(2-chloro-6-fluorophenyl)-5-(4-(piperazin-1-yl)phenyl)oxazole-4-carboxamide], the pIC50 (in assay [2]; against human FLT3; on human FLT4; in the assay on HCT116 cells; at human Aurora A) was > 5.00 in each case.

As for `NC(=O)c1nc(-c2cccc3[nH]ccc23)oc1-c1ccc(N2CCNCC2)cc1` [Example M-12, 2-(1H-indol-4-yl)-5-(4-(piperazin-1-yl)phenyl)oxazole-4-carboxamide], the pIC50 (in assay [2]; against human FLT3; at human FLT4; with HCT116 cells; at human Aurora A) was > 5.00 in each case.

Turning to `NC(=O)c1nc(-c2cccc3[nH]ncc23)oc1-c1ccc(N2CCNCC2)cc1` [Example M-17, 2-(1H-indazol-4-yl)-5-(4-(piperazin-1-yl)phenyl)oxazole-4-carboxamide], the pIC50 (in assay [2]; at human FLT3; on human FLT4; with HCT116 cells; at human Aurora A) was > 5.00 each time.

Take `CS(=O)(=O)c1ccc(Nc2oc(-c3c(F)cccc3F)nc2C(N)=O)cc1` [Example Q-3, 2-(2,6-difluorophenyl)-5-(4-(methylsulfonyl)phenylamino)oxazole-4-carboxamide]: the pIC50 (in assay [2]; on human FLT3; at human FLT4; with HCT116 cells; at human Aurora A) was > 5.00 in each case.

In the case of `NC(=O)c1nc(-c2c(F)cccc2F)oc1Nc1ccc(N2CCNCC2)cc1` [Example Q-11, 2-(2,6-difluorophenyl)-5-(4-(piperazin-1-yl)phenylamino)oxazole-4-carboxamide], the pIC50 (in assay [2]; against human FLT3; on human FLT4; in the assay with HCT116 cells; on human Aurora A) was > 5.00 throughout.

Turning to `CN1CCN(C(=O)c2ccc(Nc3oc(-c4c(F)cccc4F)nc3C(N)=O)cc2)CC1` [Example Q-14, 2-(2,6-difluorophenyl)-5-(4-(4-methylpiperazine-1-carbonyl)phenylamino) oxazole-4-carboxamide], the pIC50 (in assay [2]; on human FLT3; at human FLT4; in the assay with HCT116 cells; on human Aurora A) was > 5.00 each time.

As to `NC(=O)c1nc(-c2c(F)cccc2F)oc1Nc1ccc(S(=O)(=O)N2CCCCC2)cc1` [Example Q-28, 2-(2,6-difluorophenyl)-5-(4-(piperidin-1-ylsulfonyl)phenylamino)oxazole-4-carboxamide], the pIC50 is > 5.00 in assay [2], > 4.00 at human FLT3, > 5.00 on human FLT4 and > 4.00 at human Aurora A.

As to `NC(=O)c1nc(-c2c(F)cccc2Cl)oc1Nc1ccc(N2CCNCC2)cc1` [Example Q-36, 2-(2-chloro-6-fluorophenyl)-5-(4-(piperazin-1-yl)phenylamino)oxazole-4-carboxamide], the pIC50 (in assay [2]; against human FLT3; at human FLT4; with HCT116 cells; at human Aurora A) was > 5.00 in each case.

For `CN1CCN(C(=O)c2ccc(Nc3oc(-c4c(F)cccc4Cl)nc3C(N)=O)cc2)CC1` [Example Q-57], the pIC50 (in assay [2]; against human FLT3; at human FLT4; in the assay with HCT116 cells; on human Aurora A) was > 5.00 throughout.

With `NC(=O)c1nc(Nc2c(F)cccc2F)oc1-c1ccc(N2CCNCC2)cc1` [Example R-13, 2-(2,6-difluorophenylamino)-5-(4-(piperazin-1-yl)phenyl)oxazole-4-carboxamide], the pIC50 (in assay [2]; on human FLT3; at human FLT4; in the assay on HCT116 cells; at human Aurora A) was > 5.00 in each case.

As to `Cc1cc(Nc2cc(N3CCN(C)CC3)nc(Sc3ccc(NC(=O)C4CC4)cc3)n2)n[nH]1` [VX-680], the “killing of primary AML cells” value in assay [3] is listed as “potently killed”.
